Data as given in patent US20030148925A1, “Insulin formulation for inhalation” (priority 2000, published 2003).

Conditions: dog, in vivo

| Substance | AUC Normalised (Relative %) | AUC Normalised (relative to the subcutaneous dose of 1.5 units) | AUC Per Dose | rank of AUC following normalisation to the doses administered |
| --- | --- | --- | --- | --- |
| Insulin Without Zinc [Formulation B] | (8.0) % | 234 uU.min/ml | 773 uU.min/ml |  |
| Zinc Insulin [Formulation A] | (4.2) % | 123 uU.min/ml | 657 uU.min/ml |  |

More lines, now with the values ahead:

| AUC Normalised (Relative %) | AUC Normalised (relative to the subcutaneous dose of 1.5 units) | AUC Per Dose | rank of AUC following normalisation to the doses administered | Substance |
| --- | --- | --- | --- | --- |
| (17.0) % | 495 uU.min/ml | 2355 uU.min/ml | highest AUC | 20% Zinc Insulin in Trehalose [Formulation D] |
| (6.4) % | 188 uU.min/ml | 625 uU.min/ml |  | 95% Zinc Insulin in Trehalose [Formulation C] |
| (100) % | 2916 uU.min/ml | 2916 uU.min/ml |  | Humulin S [Formulation E] |
